Results taken from US4543349A, “Basic heptapeptide vasopressin antagonists” (priority 1984, dated 1985).
Starred links: 1 amine or outer side, 2 acyl side, 3 side chain; linkers in the order of their positions; H or OH if unused. Positions of bridges follow the written chain, without caps; N, C: chain ends. Non-standard residues stand in square brackets, D forms with d. Residues, ends and D or L forms follow the SMILES beside them. *: point of attachment. X1 = O=C(CC1(S[*:2])CCCCC1)[*:1]; Agmatine = N=C(N)NCCCCN*; NH(CH2)5NH2 = NCCCCCN*; NH(CH2)4NH2 = NCCCCN*

Legend:
[1] = biological target: T1, vasopressin receptors (V2 -receptors) (Sus scrofa, UniProt P32307); test: 3H-vasopressin binding assay, hog kidney medullary membranes; details: competitive inhibition of 3H-vasopressin binding, read-out: Swine KB
T1 construct: from tissue; host or cells: hog kidney medullary membranes
T1 sequence (P32307 whole entry): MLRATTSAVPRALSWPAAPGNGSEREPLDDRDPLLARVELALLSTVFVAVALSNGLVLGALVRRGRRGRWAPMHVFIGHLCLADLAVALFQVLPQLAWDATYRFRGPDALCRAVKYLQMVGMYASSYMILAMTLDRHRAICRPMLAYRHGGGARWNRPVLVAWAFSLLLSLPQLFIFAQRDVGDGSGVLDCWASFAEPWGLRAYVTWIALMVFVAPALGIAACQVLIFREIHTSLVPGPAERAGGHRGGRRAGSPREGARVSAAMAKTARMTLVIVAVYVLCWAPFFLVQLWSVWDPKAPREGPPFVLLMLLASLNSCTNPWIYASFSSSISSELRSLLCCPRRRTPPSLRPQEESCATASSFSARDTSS
Experimental: Antagonistic activity toward the natural antidiuretic hormone (anti-ADH activity) is determined, in vitro, in the medullary tissue of hog or human kidneys and, in vivo, in the hydropenic rat. The in vitro assay procedures for vasopressin stimulated adenylate cyclase activation or vasopression binding activity are described by F. Stassen et al., J. Pharmacology and Experimental Therapeutics, 223, 50-54 (1982).
These values represent total and non-specific binding, respectively.

hydropenic rat = test: Hydropenic rat screen (anti-ADH activity in vivo); details: dose required to lower urine osmolality to 300 m-Osmoles/kg; intraperitoneal; hydropenic male rats
Experimental: The assay for anti-ADH activity in vivo is the hydropenic rat protocol described below:
Food and water are removed from male rats approximately 18 hours prior to testing. Animals are housed 4 per metabolism cage. At 0 hour, the test compound is administered intraperitoneally to the test group and an equivalent volume of vehicle is administered to both control groups (fasted and non-fasted). Urine volume and osmolality are measured every hour for 4 hours. Test values are recorded as ml of urine excreted (cumulative), mEq/rat electrolyte excreted, mg/rat urea excreted, and osmolality in milli-Osmoles/kg H2 O. A tolerance test is used to determine significance. Ed300 is defined as the dose of compound (μg/kg) required to lower urine osmolality to 300 m-Osmoles/kg.

[2] = biological target: vasopressin stimulated adenylate cyclase; test: Vasopressin stimulated adenylate cyclase activity, hog kidney medullary tissue; type: biochemical; details: swine kidney medullary membrane
Experimental: (§1) In the test procedure for assay of adenylate cyclase activity, the amount of ^32 P/cAMP formed in the absence of medullary membrane is determined (blank). The blank value is subtracted from all experimental data. The compound is tested for its effect on basal adenylate cyclase activity and/or on vasopressin stimulated activity. Each determination is carried out in triplicate. The Ka value is derived from a Lineweaver-Burkeplot. Rel. Vmax =(Vmax drug/Vmax vasopressin)×100. Ki =I/[Ka'/Ka)-1] where I is the concentration of the antagonist, and Ka' and Ka are the concentrations of vasopressin required to give half maximal activity of adenylate cyclase in the presence and absence of antagonist, respectively.

[3] = biological target: vasopressin stimulated adenylate cyclase; test: Vasopressin stimulated adenylate cyclase activity, human kidney medullary tissue; type: biochemical; details: human kidney medullary membrane
Experimental: as §1

Kb [1]	Ki [2]	Ki [3]	Structure (SMILES)	Rat ED300 (hydropenic rat)
29 nM	–	–	CCOc1ccc(C[C@H]2NC(=O)CC3(CCCCC3)SSC[C@@H](C(=O)N3CCC[C@H]3C(=O)NCCCCCN)NC(=O)[C@H](CC(N)=O)NC(=O)[C@H](C(C)C)NC(=O)[C@H](Cc3ccccc3)NC2=O)cc1 [B, [1-(β-Mercapto-β,β -cyclopentamethylenepropionic acid)-2-(O--ethyl-D-tyrosine)-4-valine-8-(1,5-diaminopentane)-8-desarginine-9-desglycinamide]-vasopressin] ([dY](Et)FVNCP-{NH(CH2)5NH2}; linker N-5 via X1)	–
9.2 nM	6.4 nM	7.5 nM	CCOc1ccc(C[C@H]2NC(=O)CC3(CCCCC3)SSC[C@@H](C(=O)N3CCC[C@H]3C(=O)NCCCCN)NC(=O)[C@H](CC(N)=O)NC(=O)[C@H](C(C)C)NC(=O)[C@H](Cc3ccccc3)NC2=O)cc1 [C, [1-(β-Mercapto-β,β -cyclopentamethylenepropionic acid)-2-(O--ethyl-D-tyrosine)-4-valine-8-(1,4-diaminobutane)-8-desarginine-9-desglycinamide]-vasopressin] ([dY](Et)FVNCP-{NH(CH2)4NH2}; linker N-5 via X1)	0.019 mg/kg
410 nM	–	–	CCOc1ccc(C[C@H]2NC(=O)CC3(CCCCC3)SSC[C@@H](C(=O)N3CCC[C@H]3C(=O)O)NC(=O)[C@H](CC(N)=O)NC(=O)[C@H](C(C)C)NC(=O)[C@H](Cc3ccccc3)NC2=O)cc1 [D, [1-(β-Mercapto-β,β -cyclopentamethylenepropionic acid)-2-(O--ethyl-D-tyrosine)-4-valine-8-desarginine-9-desglycinamide]-vasopressin] ([dY](Et)FVNCP-OH; linker N-5 via X1)	–

More lines, now with the values behind:

Structure (SMILES)	Kb [1]	Ki [2]	Ki [3]	Rat ED300 (hydropenic rat)
CC(C)[C@@H]1NC(=O)[C@H](Cc2ccccc2)NC(=O)[C@@H](Cc2ccc(O)cc2)NC(=O)CC2(CCCCC2)SSC[C@@H](C(=O)N2CCC[C@H]2C(=O)O)NC(=O)[C@H](CC(N)=O)NC1=O [E, [1-(β-Mercapto-β,β -cyclopentamethylenepropionic acid)-2-D-tyrosine-4-valine-8-desarginine-9-desglycinamide]-vasopressin] (HELM PEPTIDE1{[dY].F.V.N.C.P}|CHEM1{[O=C(CC1(S[*:2])CCCCC1)[*:1]]}$PEPTIDE1,CHEM1,1:R1-1:R1|PEPTIDE1,CHEM1,5:R3-1:R2$$$V2.0)	17000 nM	–	–	–
CC(C)[C@@H]1NC(=O)[C@H](Cc2ccccc2)NC(=O)[C@@H](Cc2ccc(O)cc2)NC(=O)CC2(CCCCC2)SSC[C@@H](C(=O)N2CCC[C@H]2C(=O)NCCCCCN)NC(=O)[C@H](CC(N)=O)NC1=O [A, [1-(β-Mercapto-β,β -cyclopentamethylenepropionic acid)-2-D-tyrosine-4-valine-8-(1,5-diaminopentane)-8-desarginine-9-desglycineamide]-vasopressin] (HELM PEPTIDE1{[dY].F.V.N.C.P.[NCCCCCN[*:1]]}|CHEM1{[O=C(CC1(S[*:2])CCCCC1)[*:1]]}$PEPTIDE1,CHEM1,1:R1-1:R1|PEPTIDE1,CHEM1,5:R3-1:R2$$$V2.0)	220 nM	–	–	–
CCOc1ccc(C[C@H]2NC(=O)CC3(CCCCC3)SSC[C@@H](C(=O)N3CCC[C@H]3C(=O)NCCCCN=C(N)N)NC(=O)[C@H](CC(N)=O)NC(=O)[C@H](C(C)C)NC(=O)[C@H](Cc3ccccc3)NC2=O)cc1 [G, [1-(β-Mercapto-β,β -cyclopentamethylenepropionic acid)-2-(O--ethyl-D-tyrosine)-4-valine-8-desarginine-9-desglycinamide-8-(1,4-aminoguanidinobutane)]-vasopressin] ([dY](Et)FVNCP-Agmatine; linker N-5 via X1)	14 nM	–	–	–
CCOc1ccc(C[C@H]2NC(=O)CC3(CCCCC3)SSC[C@@H](C(=O)NCCCCCN)NC(=O)[C@H](CC(N)=O)NC(=O)[C@H](C(C)C)NC(=O)[C@H](Cc3ccccc3)NC2=O)cc1 [F, [1-(β-Mercapto-β,β -cyclopentamethylenepropionic acid)-2-(O--ethyl-D-tyrosine)-4-valine-7-desproline-8-desarginine-9-desglycinamide-7-(1,5-diaminopentane)]-vasopressin]	19 nM	–	–	–
